# Molecular target: Furin (Homo sapiens, UniProt P09958)
# Experiment: Inhibition of recombinant human furin expressed in CHO cells using pyroGlu- Arg-Thr-Lys-Arg-AMC as the substrate after 30 mins
# Assay type: cell-based
# Sequence of Furin (P09958 whole entry): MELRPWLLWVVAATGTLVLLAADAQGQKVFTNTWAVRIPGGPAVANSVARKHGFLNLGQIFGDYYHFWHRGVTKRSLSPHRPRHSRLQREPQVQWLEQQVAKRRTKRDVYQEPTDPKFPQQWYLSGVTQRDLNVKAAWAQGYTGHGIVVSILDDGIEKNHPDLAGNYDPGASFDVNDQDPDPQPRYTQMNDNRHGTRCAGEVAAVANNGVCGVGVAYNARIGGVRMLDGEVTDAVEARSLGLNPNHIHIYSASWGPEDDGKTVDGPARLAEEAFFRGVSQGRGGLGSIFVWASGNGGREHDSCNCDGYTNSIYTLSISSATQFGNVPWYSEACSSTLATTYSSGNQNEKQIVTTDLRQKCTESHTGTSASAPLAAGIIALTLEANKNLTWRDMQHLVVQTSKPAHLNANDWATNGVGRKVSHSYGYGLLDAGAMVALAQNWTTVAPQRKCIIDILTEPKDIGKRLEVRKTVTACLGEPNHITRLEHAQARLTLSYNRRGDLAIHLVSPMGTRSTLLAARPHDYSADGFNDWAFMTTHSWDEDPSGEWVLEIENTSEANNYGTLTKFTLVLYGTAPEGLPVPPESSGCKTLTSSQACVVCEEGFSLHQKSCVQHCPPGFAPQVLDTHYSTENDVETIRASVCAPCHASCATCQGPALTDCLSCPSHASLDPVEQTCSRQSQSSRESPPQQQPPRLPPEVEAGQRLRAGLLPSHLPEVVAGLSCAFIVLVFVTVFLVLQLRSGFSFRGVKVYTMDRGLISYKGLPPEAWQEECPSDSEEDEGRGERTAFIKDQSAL
row,Ki,SMILES
1,7340 nM,CC(C)[C@H](NC(=O)Cc1ccccc1)C(=O)N[C@H](CCCN=C(N)N)C(=O)N[C@@H](CCCN=C(N)N)C(=O)NCc1ccc(C(=N)N)cc1
2,1.5 nM,CC(C)[C@H](NC(=O)[C@H](CCCN=C(N)N)NC(=O)Cc1ccccc1)C(=O)N[C@@H](CCCCN)C(=O)NCc1ccc(C(=N)N)cc1
3,3.7 nM,N=C(N)c1ccc(CNC(=O)[C@H](CCCCN)NC(=O)[C@H](CN)NC(=O)[C@H](CCCN=C(N)N)NC(=O)Cc2ccccc2)cc1
4,3200 nM,NC(N)=NCCC[C@H](NC(=O)[C@@H](CCCN=C(N)N)NC(=O)Cc1ccccc1)C(=O)O

# Source: ChEMBL document CHEMBL1806363, “New substrate analogue furin inhibitors derived from 4-amidinobenzylamide” (Bioorg Med Chem Lett, 2011)
